Measurements reported in PubChem BioAssay (NCI).
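96-well plates; 48 h exposure; 5 concentrations. Endpoints by linear interpolation between flanking doses. Not reached: highest tested concentration assigned. Here, GI50 denotes the concentration required for 50% inhibition of growth. TGI is the concentration that stops growth completely.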

Tests used:
Assay in all cases: NCI tumour cell line growth inhibition, 48 h
[1] = system: ACHN renal
[2] = system: UO-31 renal
[3] = system: HCT-116 colon
[4] = system: RPMI-8226 leukemia
[5] = system: SF-268 CNS
[6] = system: HCT-15 colon
[7] = system: SF-539 CNS
[8] = system: TK-10 renal
[9] = system: K-562 leukemia
[10] = system: DU-145 prostate
[11] = system: M14 melanoma
[12] = system: HT29 colon
[13] = system: SK-MEL-2 melanoma
[14] = system: CCRF-CEM leukemia
[15] = system: OVCAR-4 ovarian
[16] = system: UACC-62 melanoma
[17] = system: SK-MEL-28 melanoma
[18] = system: NCI-H522 lung
[19] = system: MCF7 breast
[20] = system: MALME-3M melanoma
[21] = system: UACC-257 melanoma
[22] = system: OVCAR-3 ovarian
[23] = system: NCI-H226 lung
[24] = system: RXF 393 renal
[25] = system: HS 578T breast
[26] = system: T-47D breast
[27] = system: SF-295 CNS
[28] = system: MDA-MB-435
[29] = system: SN12C renal
[30] = system: SK-MEL-5 melanoma
[31] = system: COLO 205 colon
[32] = system: HL-60(TB) leukemia
[33] = system: MOLT-4 leukemia
[34] = system: KM12 colon
[35] = system: U251 CNS
[36] = system: A549 NSCLC
[37] = system: EKVX NSCLC
[38] = system: HCC-2998 colon
[39] = system: PC-3 prostate
[40] = system: SR leukemia
[41] = system: HOP-92 NSCLC
[42] = system: IGROV1 ovarian
[43] = system: OVCAR-5 ovarian
[44] = system: NCI/ADR-RES ovarian
[45] = system: SNB-19 CNS
[46] = system: SW-620 colon
[47] = system: MDA-MB-231 breast
[48] = system: CAKI-1 renal
[49] = system: OVCAR-8 ovarian
[50] = system: HOP-62 NSCLC
[51] = system: NCI-H460 lung
[52] = system: A498 renal
[53] = system: 786-0 renal
[54] = system: NCI-H23 lung
[55] = system: LOX IMVI melanoma
[56] = system: SNB-75 CNS

## CC(CN1CCN(C)CC1)CN1c2ccccc2Sc2ccc(C(F)(F)F)cc21 (configuration not stated)
[1]
  GI50: 1.67 µM
  TGI: 3.27 µM
[2]
  GI50: 1.8 µM
  TGI: 6.4 µM
[3]
  GI50: 1.68 µM
  TGI: 3.07 µM
[4]
  GI50: 2.43 µM
  TGI: 5.49 µM
[5]
  GI50: 3.1 µM
  TGI: 9.29 µM
[6]
  GI50: 1.81 µM
  TGI: 3.95 µM
[7]
  GI50: 1.67 µM
  TGI: 3.59 µM
[8]
  GI50: 1.85 µM
  TGI: 3.3 µM
[9]
  GI50: 1.76 µM
  TGI: 4.21 µM
[10]
  GI50: 2.8 µM
  TGI: 6.99 µM
[11]
  GI50: 1.75 µM
  TGI: 3.25 µM
[12]
  GI50: 1.8 µM
  TGI: 3.27 µM
[13]
  GI50: 2.09 µM
  TGI: 3.74 µM
[14]
  GI50: 2.6 µM
  TGI: 6.74 µM
[15]
  GI50: 2.16 µM
  TGI: 4.4 µM
[16]
  GI50: 2.09 µM
  TGI: 4.18 µM
[17]
  GI50: 1.91 µM
  TGI: 3.42 µM
[18]
  GI50: 1.79 µM
  TGI: 3.37 µM
[19]
  GI50: 1.64 µM
  TGI: 3.16 µM
[20]
  GI50: 1.72 µM
  TGI: 3.72 µM
[21]
  GI50: 1.89 µM
  TGI: 3.81 µM
[22]
  GI50: 2.04 µM
  TGI: 4.16 µM
[23]
  GI50: 2.6 µM
  TGI: 8.51 µM
[24]
  GI50: 1.64 µM
  TGI: 3.03 µM
[25]
  GI50: 1.88 µM
  TGI: 5.8 µM
[26]
  GI50: 1.89 µM
  TGI: 4.55 µM
[27]
  GI50: 1.97 µM
  TGI: 4.31 µM
[28]
  GI50: 1.8 µM
  TGI: 3.6 µM
[29]
  GI50: 4.07 µM
  TGI: 14.5 µM
[30]
  GI50: 1.61 µM
  TGI: 2.99 µM
[31]
  GI50: 1.89 µM
  TGI: 3.65 µM
[32]
  GI50: 1.92 µM
  TGI: 4.1 µM
[33]
  GI50: 2.05 µM
  TGI: 4.77 µM
[34]
  GI50: 1.95 µM
  TGI: 3.52 µM
[35]
  GI50: 1.68 µM
  TGI: 3.12 µM
[36]
  GI50: 1.85 µM
  TGI: 3.49 µM
[37]
  GI50: 2.1 µM
  TGI: 5.38 µM
[38]
  GI50: 1.63 µM
  TGI: 3.07 µM
[39]
  GI50: 2.09 µM
  TGI: 5.21 µM
[40]
  GI50: 2.01 µM
  TGI: 5.32 µM
[41]
  GI50: 1.25 µM
  TGI: 4.38 µM
[42]
  GI50: 2.77 µM
  TGI: 10.2 µM
[43]
  GI50: 1.53 µM
  TGI: 3.13 µM
[44]
  GI50: 1.94 µM
  TGI: 4.94 µM
[45]
  GI50: 2.08 µM
  TGI: 4.32 µM
[46]
  GI50: 1.83 µM
  TGI: 3.67 µM
[47]
  GI50: 1.36 µM
  TGI: 2.82 µM
[48]
  GI50: 2.6 µM
  TGI: 11 µM
[49]
  GI50: 1.76 µM
  TGI: 3.34 µM
[50]
  GI50: 1.71 µM
  TGI: 3.17 µM
[51]
  GI50: 1.93 µM
  TGI: 3.84 µM
[52]
  GI50: 2.98 µM
  TGI: 15.2 µM
[53]
  GI50: 1.66 µM
  TGI: 3.12 µM
[54]
  GI50: 1.83 µM
  TGI: 4.05 µM
[55]
  GI50: 1.68 µM
  TGI: 3.25 µM
[56]
  GI50: 2.21 µM
  TGI: 7.85 µM
